Like-named read-outs stand apart in the source and are kept apart here.
Legend:
[1] = tested on: obese subjects genotyped for the dopamine D2 receptor gene (DRD2); experiment: Chromium picolinate body composition response as a function of DRD2 Taq1 A1 genotype; assay type: in vivo, human
Description: In order to resolve the issue of non-responders, the inventor decided to test the hypothesis that typing the obese patients by genotyping the DRD2 gene prior to treatment with CrP would result in a differential treatment outcome. […] One of us (KB) predicted carriers of the DRD2 A2 allele would retain the positive metabolic effects of P, but in contrast the DRD2 A1 carriers, because there is a proclivity to increased carbohydrate binging, would possibly mask the metabolic effects of CrP on weight loss and change in body fat attenuating any positive effects. One prophetic example as described earlier (see page 48):
The inventor genotyped 130 obese subjects for the dopamine D2 receptor gene (DRD2) utilizing standard PCR techniques. The subjects were assessed for scale weight and for percent body fat using dual energy X-ray absorptiometry (DEXAR). The subjects were divided into matched placebo and chromium picolinate (CrP) groups (400μg. per day). The sample was separated into two independent groups; those with either an A1/A1 or A1/A2 allele and those with only the A2/A2 allelic pattern. Each of these groups was tested separately for differences between placebo and treatment means for a variety of measures of weight change. These measures consisted of calculations of the percent of fat weight change; the change in fat weight; the change in body weight; the change in free mass, the percent change of fat weight; the body composition index; and the body weight change in kilograms.

[2] = tested on: patients following weight reduction; conditions: after six months; cited from earlier work
[3] = tested on: over-eating patients; conditions: 200 and 400 mcg, compared with placebo; cited from earlier work
[4] = tested on: over-eating patients; conditions: 400 mcg vs placebo, cited from earlier work
[5] = tested on: obese subjects genotyped for the dopamine D2 receptor gene (DRD2); conditions: 400 mcg of CrP/day, cited from earlier work
[6] = tested on: young obese women; conditions: cited from earlier work

Question: What does the source list for Chromium Picolinate?
Answer: body weight change in kilograms, treatment vs placebo ([1]; A2/A2, p<0.012): significant; change in fat weight, treatment vs placebo ([1]; A2/A2, p<0.041): significant; percent change in weight, treatment vs placebo ([1]; A2/A2, p<0.044): significant; responsiveness to the effects of CrP ([1]; DRD2 A2 allele carriers versus DRD2 A1 allele carriers, 400 ug per day): more responsive; any parameter of weight change, treatment vs placebo ([1]; subjects possessing a DRD2 A1 allele): no significance; non-fat related weight loss [2]: lean body mass and avoided non-fat related weight; changes in Body Mass composition indicies [3]: 200 and 400 mcg of CrP brought about significant; reduction in body fat ([4]; p < 0.001): greater reduction in body fat (p < 0.001), significantly; weight lost ([4]; p < 0.001): group, 400 mcg CrP group lost significantly more; body composition ([4]; p < 0.004): improve body composition (p < 0.004).; body fat lost ([4]; p < 0.004): group, 400 mcg CrP group lost significantly more; changes in fat weight, body weight, percent change in weight, body weight changes in kgms ([5]; A1/A2 and A1/A1 carriers, listed as CrP): non-; changes in fat weight, body weight, percent change in weight, body weight changes in kgms ([5]; A2/A2 group): changes in kgms were all significant in A2/A2 group,; weight gain ([6]; CrP supplementation alone, 43 pts, 63 days): CrP supplementation resulted in significant weight; weight loss ([6]; exercise training combined with CrP supplementation): supplementation resulted in significant weight loss
